Activity calls are given as the source filed them. No cut-off for these calls is given here.

The test addresses T1, Son of sevenless homolog 1 (Homo sapiens) (UniProt Q07889).
T1 sequence (whole entry): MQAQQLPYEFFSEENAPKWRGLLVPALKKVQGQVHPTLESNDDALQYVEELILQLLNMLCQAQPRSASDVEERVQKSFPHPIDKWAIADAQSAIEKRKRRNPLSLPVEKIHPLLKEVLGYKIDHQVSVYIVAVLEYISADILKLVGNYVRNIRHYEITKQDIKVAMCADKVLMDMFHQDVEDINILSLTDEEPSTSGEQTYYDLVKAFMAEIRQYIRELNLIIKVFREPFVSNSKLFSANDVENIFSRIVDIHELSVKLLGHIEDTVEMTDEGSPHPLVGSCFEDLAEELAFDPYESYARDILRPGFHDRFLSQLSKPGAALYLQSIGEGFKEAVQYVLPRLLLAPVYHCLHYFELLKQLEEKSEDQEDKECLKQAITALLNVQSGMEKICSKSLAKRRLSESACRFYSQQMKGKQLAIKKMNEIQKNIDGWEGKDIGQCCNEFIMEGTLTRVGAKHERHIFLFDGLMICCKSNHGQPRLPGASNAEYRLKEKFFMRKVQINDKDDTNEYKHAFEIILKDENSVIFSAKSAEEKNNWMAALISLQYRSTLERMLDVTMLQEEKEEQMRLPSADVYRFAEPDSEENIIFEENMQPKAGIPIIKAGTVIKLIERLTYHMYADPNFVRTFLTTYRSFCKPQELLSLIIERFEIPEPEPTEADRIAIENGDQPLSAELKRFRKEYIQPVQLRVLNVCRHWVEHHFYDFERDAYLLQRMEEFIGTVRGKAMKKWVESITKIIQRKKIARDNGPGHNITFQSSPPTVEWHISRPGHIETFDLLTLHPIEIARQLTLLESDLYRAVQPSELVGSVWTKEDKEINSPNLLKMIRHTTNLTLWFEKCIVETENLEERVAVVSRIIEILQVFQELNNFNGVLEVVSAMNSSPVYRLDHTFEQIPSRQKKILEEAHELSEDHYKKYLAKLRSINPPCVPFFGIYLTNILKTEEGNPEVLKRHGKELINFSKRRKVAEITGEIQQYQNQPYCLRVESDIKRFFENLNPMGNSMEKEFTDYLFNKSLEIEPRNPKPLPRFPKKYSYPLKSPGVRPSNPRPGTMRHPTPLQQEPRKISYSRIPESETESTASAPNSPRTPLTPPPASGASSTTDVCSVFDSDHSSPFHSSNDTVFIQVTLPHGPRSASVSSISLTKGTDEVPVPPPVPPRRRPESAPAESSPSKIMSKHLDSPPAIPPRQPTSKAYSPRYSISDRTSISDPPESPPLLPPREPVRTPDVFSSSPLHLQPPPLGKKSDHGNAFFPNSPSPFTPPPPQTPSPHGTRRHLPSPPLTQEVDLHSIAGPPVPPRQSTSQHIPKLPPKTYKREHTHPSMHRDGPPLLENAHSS
Briefly: Inhibition of N-terminal 6x-His-tagged recombinant human SOS1 catalytic domain (residues 564 to 1049 residues) expressed in Escherichia coli BL21 (DE3) assessed as disruption of allosteric SOS1/Ras Y64A mutant:GTPgammaS interaction at 20 to 200 uM by Western lot analysis.

With `O=[N+]([O-])c1ccccc1/C=C/C=C1c2ccccc2-c2ccccc21`, the inhibition entry was “Active”.

For the origin of these results see ChEMBL document CHEMBL4420078, “Sos1 inhibitors for cancer treatment” (2016).
